The text below walks through data of patent publication US10227323B2, “Glucosylceramide synthase inhibitors for the treatment of diseases” (BIOMARIN PHARMACEUTICAL INC., priority 2013, dated 2019).

Each structure is given as a SMILES string.

The target in the first assay is T1, GCS (Canis lupus familiaris, UniProt A0A8I3MXG6).
T1 sequence (A0A8I3MXG6 1-394): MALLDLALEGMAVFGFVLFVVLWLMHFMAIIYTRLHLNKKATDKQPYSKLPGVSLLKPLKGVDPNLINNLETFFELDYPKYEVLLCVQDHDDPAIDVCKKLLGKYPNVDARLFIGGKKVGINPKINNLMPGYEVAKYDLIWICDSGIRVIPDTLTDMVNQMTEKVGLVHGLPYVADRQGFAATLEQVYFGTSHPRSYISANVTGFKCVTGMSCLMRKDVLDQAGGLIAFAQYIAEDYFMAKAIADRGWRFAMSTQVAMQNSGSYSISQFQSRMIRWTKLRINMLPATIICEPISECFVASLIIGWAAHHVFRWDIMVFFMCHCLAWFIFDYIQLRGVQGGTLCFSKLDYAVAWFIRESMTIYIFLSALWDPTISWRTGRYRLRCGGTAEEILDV
Briefly: Assay 1: GCS Enzymatic Assay (MDCK cell lysate, C6-NBD-Ceramide, LC/MS). In kind it is biochemical, canine. Particulars: Table 2; data marked by *. In short, it runs like this:
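LC/MS/MS measurement of glucosylceramide and NBD-ceramide after a 1 h, 37 °C reaction with 100 μM UDP-glucose and 10 μM C6-NBD-ceramide gave IC50s or percent inhibition.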
In the case of `CC(C)(O)COc1ccc([C@H](O)[C@@H](CN2CCCC2)NC(=O)C(F)(F)c2cc3cc(Cl)ccc3o2)cc1Cl` [Compound 168, N-((1S,2R)-1-(3-chloro-4-(2-hydroxy-2-methylpropoxy)phenyl)-1-hydroxy-3-(pyrrolidin-1-yl)propan-2-yl)-2-(5-chlorobenzofuran-2-yl)-2,2-difluoroacetamide], the “% inhibition generated from Assay 1” value was “B* (the compound had a % inhibition of greater than or equal to about 3% but less than about 50%)”.

For `O=C(N[C@H](CN1CCC1)[C@H](O)c1ccc(OC2CC2)c(Cl)c1)/C(=N/O)c1cc2cc(Cl)ccc2o1` [Compound 169, (E)-N-((1R,2R)-3-(azetidin-1-yl)-1-(3-chloro-4-cyclopropoxyphenyl)-1-hydroxypropan-2-yl)-2-(5-chlorobenzofuran-2-yl)-2-(hydroxyimino)acetamide], the “% inhibition generated from Assay 1” value is on record as “A* (the compound had a % inhibition of a percent inhibition of greater than or equal to about 50%)”.

With `O=C(CCc1ccc2ccccc2c1)C(=O)N[C@H](CN1CCC1)[C@H](O)c1ccc(OC2CC2)c(Cl)c1` [Compound 170, N-((1R,2R)-3-(azetidin-1-yl)-1-(3-chloro-4-cyclopropoxyphenyl)-1-hydroxypropan-2-yl)-4-(naphthalen-2-yl)-2-oxobutanamide], the “% inhibition generated from Assay 1” value was “B* (the compound had a % inhibition of greater than or equal to about 3% but less than about 50%)”.

As to `O=C(N[C@H](CN1CCCC1)[C@H](O)c1ccc(OC2CC2)c(Cl)c1)C(F)(F)c1ccc(-c2ccc(F)cn2)cc1` [Compound 178, N-((1R,2R)-1-(3-chloro-4-cyclopropoxyphenyl)-1-hydroxy-3-(pyrrolidin-1-yl)propan-2-yl)-2,2-difluoro-2-(4-(5-fluoropyridin-2-yl)phenyl)acetamide], the “% inhibition generated from Assay 1” value is listed as “A* (the compound had a % inhibition of a percent inhibition of greater than or equal to about 50%)”.

For `O=C(N[C@H](CN1CCCC1)[C@H](O)c1ccc2c(c1)OCCO2)C(F)(F)c1ccc(-c2ccc(F)cn2)cc1` [Compound 179, N-((1R,2R)-1-(2,3-dihydrobenzo[b][1,4]dioxin-6-yl)-1-hydroxy-3-(pyrrolidin-1-yl)propan-2-yl)-2,2-difluoro-2-(4-(5-fluoropyridin-2-yl)phenyl)acetamide], the “% inhibition generated from Assay 1” value was “A* (the compound had a % inhibition of a percent inhibition of greater than or equal to about 50%)”.

Take `O=C(N[C@H](CN1CCCC1)[C@H](O)c1ccc2c(c1)OCCO2)C(F)(F)c1ccc(-c2ccc(F)cc2)s1` [Compound 180, N-((1R,2R)-1-(2,3-dihydrobenzo[b][1,4]dioxin-6-yl)-1-hydroxy-3-(pyrrolidin-1-yl)propan-2-yl)-2,2-difluoro-2-(5-(4-fluorophenyl)thiophen-2-yl)acetamide]: the “% inhibition generated from Assay 1” value is given as “A* (the compound had a % inhibition of a percent inhibition of greater than or equal to about 50%)”.

Regarding `O=C(N[C@H](CN1CCCC1)[C@H](O)c1cnc2c(c1)OCCO2)C(F)(F)c1cc2cc(Cl)ccc2o1` [Compound 185, 2-(5-chlorobenzofuran-2-yl)-N-((1R,2R)-1-(2,3-dihydro-[1,4]dioxino[2,3-b]pyridin-7-yl)-1-hydroxy-3-(pyrrolidin-1-yl)propan-2-yl)-2,2-difluoroacetamide], the “% inhibition generated from Assay 1” value is reported as “B* (the compound had a % inhibition of greater than or equal to about 3% but less than about 50%)”.

For the compound `O=C(N[C@H](CN1CCCC1)[C@H](O)c1ccc2c(c1)OCCO2)C(F)(F)c1ccc(-c2ccccn2)cc1` [Compound 186, N-((1R,2R)-1-(2,3-dihydrobenzo[b][1,4]dioxin-6-yl)-1-hydroxy-3-(pyrrolidin-1-yl)propan-2-yl)-2,2-difluoro-2-(4-(pyridin-2-yl)phenyl)acetamide], the “% inhibition generated from Assay 1” value is reported as “A* (the compound had a % inhibition of a percent inhibition of greater than or equal to about 50%)”.

Staying with this assay, now noted: Table 2; data without asterisk; read-out: IC50 (nM) generated from Assay 1.
A word on the IC50: it is the concentration needed to halve the response being measured. For the compound `O=C(N[C@H](CN1CCCC1)[C@H](O)c1ccc2c(c1)OCCO2)C(F)(F)CCc1ccc2c(c1)CCCC2` [Compound 165, N-((1R,2R)-1-(2,3-dihydrobenzo[b][1,4]dioxin-6-yl)-1-hydroxy-3-(pyrrolidin-1-yl)propan-2-yl)-2,2-difluoro-4-(5,6,7,8-tetrahydronaphthalen-2-yl)butanamide], the IC50 was less than 50 nM.

As for `O=C(N[C@H](CN1CCCC1)[C@H](O)c1ccc(OC2CC2)c(Cl)c1)C(F)(F)CCc1ccc2c(c1)CCCC2` [Compound 166, N-((1R,2R)-1-(3-chloro-4-cyclopropoxyphenyl)-1-hydroxy-3-(pyrrolidin-1-yl)propan-2-yl)-2,2-difluoro-4-(5,6,7,8-tetrahydronaphthalen-2-yl)butanamide], the IC50 is less than 50 nM.

For `O=C(N[C@H](CN1CCCC1)[C@H](O)c1cc(F)c2c(c1)OCCO2)C(F)(F)CCc1ccc2c(c1)CCCC2` [Compound 167, 2,2-difluoro-N-((1R,2R)-1-(8-fluoro-2,3-dihydrobenzo[b][1,4]dioxin-6-yl)-1-hydroxy-3-(pyrrolidin-1-yl)propan-2-yl)-4-(5,6,7,8-tetrahydronaphthalen-2-yl)butanamide], the IC50 is less than 50 nM.

`O=C(N[C@H](CN1CCC1)[C@H](O)c1ccc(OC2CC2)c(Cl)c1)C(F)(F)CCc1ccc2ccccc2c1` [Compound 171, N-((1R,2R)-3-(azetidin-1-yl)-1-(3-chloro-4-cyclopropoxyphenyl)-1-hydroxypropan-2-yl)-2,2-difluoro-4-(naphthalen-2-yl)butanamide]: the IC50 was less than 50 nM.

Take `O=C(N[C@H](CN1CCCC1)[C@H](O)c1ccc(OC2CC2)c(Cl)c1)C(=O)c1ccc2cc(Cl)ccc2c1` [Compound 172, N-((1R,2R)-1-(3-chloro-4-cyclopropoxyphenyl)-1-hydroxy-3-(pyrrolidin-1-yl)propan-2-yl)-2-(6-chloronaphthalen-2-yl)-2-oxoacetamide]: the IC50 is less than 50 nM.

As for `O=C(N[C@H](CN1CCCC1)[C@H](O)c1ccc(OC2CC2)c(Cl)c1)/C(=N/O)c1ccc2cc(Cl)ccc2c1` [Compound 173, (E)-N-((1R,2R)-1-(3-chloro-4-cyclopropoxyphenyl)-1-hydroxy-3-(pyrrolidin-1-yl)propan-2-yl)-2-(6-chloronaphthalen-2-yl)-2-(hydroxyimino)acetamide], the IC50 was less than 50 nM.

Regarding `O=C(N[C@H](CN1CCCC1)[C@H](O)c1ccc2c(c1)OCCO2)C(=O)c1ccc(-c2ccc(F)cc2)s1` [Compound 174, N-((1R,2R)-1-(2,3-dihydrobenzo[b][1,4]dioxin-6-yl)-1-hydroxy-3-(pyrrolidin-1-yl)propan-2-yl)-2-(5-(4-fluorophenyl)thiophen-2-yl)-2-oxoacetamide], the half-inhibitory concentration (IC50) is less than 50 nM.

In the case of `O=C(N[C@H](CN1CCCC1)[C@H](O)c1ccc(OC2CC2)c(Cl)c1)C(=O)c1ccc(-c2ccc(F)cn2)cc1` [Compound 175], the IC50 is less than 50 nM.

For `O=C(N[C@H](CN1CCCC1)[C@H](O)c1cc(F)c2c(c1)OCCO2)C(=O)c1ccc(-c2ccc(F)cn2)cc1` [Compound 176, N-((1R,2R)-1-(8-fluoro-2,3-dihydrobenzo[b][1,4]dioxin-6-yl)-1-hydroxy-3-(pyrrolidin-1-yl)propan-2-yl)-2-(4-(5-fluoropyridin-2-yl)phenyl)-2-oxoacetamide], the IC50 was less than 50 nM.

Turning to `O=C(N[C@H](CN1CCCC1)[C@H](O)c1ccc(OC2CCOCC2)c(Cl)c1)/C(=N/O)c1ccc(-c2ccc(F)cc2)cc1` [Compound 177, (E)-N-((1R,2R)-1-(3-chloro-4-((tetrahydro-2H-pyran-4-yl)oxy)phenyl)-1-hydroxy-3-(pyrrolidin-1-yl)propan-2-yl)-2-(4′-fluoro-[1,1′-biphenyl]-4-yl)-2-(hydroxyimino)acetamide], the IC50 was less than 50 nM.

Consider `O=C(N[C@H](CN1CCCC1)[C@H](O)c1ccc2c(c1)OCCO2)/C(=N/O)c1ccc(-c2ccc(F)cc2)s1` [Compound 181, (Z)-N-((1R,2R)-1-(2,3-dihydrobenzo[b][1,4]dioxin-6-yl)-1-hydroxy-3-(pyrrolidin-1-yl)propan-2-yl)-2-(5-(4-fluorophenyl)thiophen-2-yl)-2-(hydroxyimino)acetamide], for which the IC50 was less than 50 nM.

With `O=C(N[C@H](CN1CCCC1)[C@H](O)c1ccc(OC2CC2)c(Cl)c1)C(F)(F)c1ccc(-c2ccccn2)cc1` [Compound 182, N-((1R,2R)-1-(3-chloro-4-cyclopropoxyphenyl)-1-hydroxy-3-(pyrrolidin-1-yl)propan-2-yl)-2,2-difluoro-2-(4-(pyridin-2-yl)phenyl)acetamide], the IC50 was less than 50 nM.

`O=C(N[C@H](CN1CCCC1)[C@H](O)c1cc(F)c2c(c1)OCCO2)C(F)(F)c1ccc(-c2ccc(F)cn2)cc1` [Compound 183, 2,2-difluoro-N-((1R,2R)-1-(8-fluoro-2,3-dihydrobenzo[b][1,4]dioxin-6-yl)-1-hydroxy-3-(pyrrolidin-1-yl)propan-2-yl)-2-(4-(5-fluoropyridin-2-yl)phenyl)acetamide]: the IC50 is less than 50 nM.

As to `O=C(N[C@H](CN1CCCC1)[C@H](O)c1ccc(OC2CC2)c(Cl)c1)/C(=N/O)c1ccc(-c2ccc(F)cn2)cc1` [Compound 184, (E)-N-((1R,2R)-1-(3-chloro-4-cyclopropoxyphenyl)-1-hydroxy-3-(pyrrolidin-1-yl)propan-2-yl)-2-(4-(5-fluoropyridin-2-yl)phenyl)-2-(hydroxyimino)acetamide], the IC50 was less than 50 nM.
